Values belong to the compound of their own block, whether it stands above or below them.
Legend:
U-251 [1] = assay: Antiproliferative activity against human U-251MG cells; type: functional, cell-based
U-87 MG [2] = assay: Antiproliferative activity against human U-87-MG cells; type: functional, cell-based, U-87MG ATCC
U-251 [3] = assay: Growth inhibition of human U-251MG cells measured for 48 hrs by SRB assay; type: functional
C6 = assay: Cytotoxicity against rat C6 cells assessed as reduction in cell viability incubated for 48 hrs by trypan blue dye based assay; type: functional; conditions: C6, 48 h
Hs 683 = assay: Cytotoxicity against human Hs 683 cells by MTT assay; type: functional, cell-based
[4] = Cytotoxicity against human U373 MG cells by MTT assay; type: functional, cell-based, U-373MG ATCC
T98G = assay: Antiproliferative activity against human T98G cells assessed as reduction in cell growth incubated for 72 hrs by MTS assay; type: functional, cell-based
[5] = Antiproliferative activity against human GSC#1 cells assessed as reduction in cell growth incubated for 72 hrs by MTS assay; type: functional, cell-based; conditions: GSC#1, 72 h
U-87 MG [6] = assay: Antiproliferative activity against human U-87 MG cells assessed as reduction in cell growth incubated for 72 hrs by MTS assay; type: functional, cell-based, U-87MG ATCC
U-87 MG [7] = assay: Antitumor activity against human U-87 MG cells implanted with chicken egg assessed as reduction in tumor weight at 10 uM measured after 7 days by microscopic analysis (reference value: 27.87+/-4.7 mg); type: functional, U-87MG ATCC; conditions: time 7 day
U-251 [8] = assay: Cytotoxicity against human U-251MG cells assessed as reduction in cell viability measured after 24 hrs by MTT assay; type: functional, cell-based; conditions: U-251, 24 h
[9] = Toxicity in human U-87MG cells xenografted in nude mouse assessed as lethal dose at 10 mg/kg, ip administered once daily for 20 days relative to control; type: organism-based; conditions: in vivo, time 20 day
U-118-MG = assay: Cytotoxicity against human U-118-MG cells assessed as reduction in cell viability measured after 24 hrs by MTT assay; type: functional, cell-based
A 172 = assay: Cytotoxicity against human A-172 cells assessed as reduction in cell viability measured after 24 hrs by MTT assay; type: functional, cell-based; conditions: A 172, 24 h
U-87 MG [10] = assay: Cytotoxicity against human U-87 MG cells assessed as reduction in cell viability measured after 24 hrs by MTT assay; type: functional, cell-based, U-87MG ATCC
U-251 [11] = assay: Antiproliferative activity against human U-251MG cells assessed as reduction in cell growth measured at 10 uM for 48 hrs by MTT assay relative to control; type: functional; design: scale not given: the % may be the effect or the level left

IC50 (U-251 [1]): 13.4 µM
IC50 (U-87 MG [2]): 7.9 µM
Compound: C[C@@H](O)c1cc2ccncc2c(=O)[nH]1

Compound: C/C=C1/CN2C3C[C@H]1[C@H](CO)[C@@H]2Cc1c3n(C)c2ccccc12
GI50 (U-251 [3]): 9.5 µM

Compound: COc1cc(C2(O)C(=O)N=C(N)N2C)ccc1O (stereo unspecified)
IC50 (C6): 155 µM

Compound: CC(C)[C@@]12NC(=O)[C@@H](Cc3c1[nH]c1ccccc31)n1c2nc2ccccc2c1=O
IC50 (Hs 683): 50 µM
IC50 [4]: 44 µM

IC50 (U-87 MG [6]): 1.7 µM
Compound: CC[C@]12C=CC(CC(C)=O)N3CC[C@]4(C(=C(C(=O)OC)C1)Nc1ccccc14)[C@@H]32 (stereo partly specified)
IC50 (T98G): 4.3 µM
IC50 [5]: 1.3 µM

Compound: COc1cc2c3cc1Oc1c(OC)c(OC)cc4c1[C@@H](Cc1ccc(O)c(c1)Oc1ccc(cc1)C[C@@H]3N(C)CC2)N(C)CC4 [BERBAMINE]
Activity (U-87 MG [7]): 5.28 mg

Compound: COc1cc2c(cc1OC)[C@@]13CCN4CC5=CCO[C@H]6CC(=O)N2[C@H]1[C@H]6[C@H]5C[C@H]43 [BRUCINE]
IC50 (U-251 [8]): 614 µM
LD50 at 480 h [9]: 13.2 mg/kg
IC50 (U-118-MG): 536 µM
IC50 (A 172): 527 µM
IC50 (U-87 MG [10]): 604 µM

Compound: Clc1ccccc1C(c1ccccc1)(c1ccccc1)n1ccnc1 [CLOTRIMAZOLE]
Activity (U-251 [11]): 70%

— ChEMBL document CHEMBL6115010, “Targeting glioma with heteroaromatic alkaloids: A review of potential therapeutics” (Bioorg Med Chem, 2025)
